Structures can show the parent of a compound that is named as a salt. Where two headings read alike, the source gives them in different places.
Key:
[1] = system: MLL-AF9-overexpressing AML-like cells (MA9 cells); assay: Differentiation-inducing activity in MLL-AF9-overexpressing AML-like cells (flow cytometry of Gr-1 and cKit); type: cell-based, mouse; conditions: 7 days, 5 or 20 nM (Ex. 25, 27), 150 or 300 nM (Ex. 26), 50 or 100 nM (Ex. 22), compared with the control group (DMSO); for rate of the myeloid cell differentiation antigen Gr-1-expressing cells in living cells: FIG. 10; for rate of the cKit-expressing cells in living cells: FIG. 11
Procedure: The human MLL-AF9 fusion gene was introduced into cKit-positive mononuclear cells isolated from the myeloid of C57BL6 mouse, by retrovirus infection. MLL-AF9-overexpressing AML-like cells (MA9 cells) that acquired abnormal growth ability were established by liquid-culturing the cells after virus infection for a long period of time. Serum-free medium (GlutaMax, P/S, Stem Pro-34 medium containing 10 ng/ml mIL-3, 50 ng/mL mSCF and 10 ng/mL human Oncostatin M) was used as a culture medium.
(2 μL/well) (day 0). After culturing for 7 days (day 7), the cells were collected, and blocked with 5% FBS/PBS containing 10% Mouse BD Fc Block (BD) for 10 minutes at room temperature, and then any of various antibodies (Gr-1-FITC or CD117 (cKit)-APC: Biolegend) was added thereto at a final concentration of 0.4 μg/sample, and the mixture was reacted on ice for 30 minutes. Then, dead cell staining dye DAPI (0.2 mg/mL) was added thereto at so as to be 1 μL/sample, and the reaction was carried out on ice for additional 2 minutes under shading. Then, the expression level of each surface antigen of the cells was measured by NovoCyte flow cytometer (LMS). The obtained data were analyzed by FlowJo software (Becton Dickinson), and the rate of each surface antigen-expressing cells in the living cells excluding dead cells was graphed.

MV-4-11 cells = assay: Cell growth inhibitory activity, MV-4-11 cells (CellTiter-Glo, 384-well); type: cell-based; conditions: Homo sapiens
Procedure: (§1) Each cell was purchased from American Type Culture Collection (ATCC). […] The prepared drug-containing plate was stored at −30° C. until use, and thawed before use.
(§2) The suspension of each cells was prepared with 10% FBS RPMI1640 culture medium so as to be 1000 cells/mL (K562) or 10000 cells/mL (MV-4-11, MOLM-13), and seeded on the drug-containing plate (40 μL/well) (day 0). The cells were cultured for additional 3 or 7 days. ATP measurement reagent (CellTiter-Glo (registered trademark, Promega Corporation) 2.0 Assay, model number G9242, Promega Corporation) was added to each well at 10 μL/well, on the day of the drug addition (day 0) and 3 days (day 3) or 7 days (day 7) after the drug addition. After affixing a black sticker on the bottom surface, the mixture was stirred using a microplate mixing deaeration machine (model name, Weltornado FK-62, Sakaki Dengyo Co., Ltd.) (stirring conditions, revolution 9, rotation 7, time 12).
(§3) The cell growth of the drug-added group from day 0 to day 3 or day 7 was calculated as T/C %, when the cell growth of the drug-free group was considered as 100%.

[2] = biological target: T1, menin (Flag tagged) and biotinylated MLL1 peptide (1-46aa) (Homo sapiens, UniProt O00255); assay: biochemical
T1 sequence (O00255 1-610): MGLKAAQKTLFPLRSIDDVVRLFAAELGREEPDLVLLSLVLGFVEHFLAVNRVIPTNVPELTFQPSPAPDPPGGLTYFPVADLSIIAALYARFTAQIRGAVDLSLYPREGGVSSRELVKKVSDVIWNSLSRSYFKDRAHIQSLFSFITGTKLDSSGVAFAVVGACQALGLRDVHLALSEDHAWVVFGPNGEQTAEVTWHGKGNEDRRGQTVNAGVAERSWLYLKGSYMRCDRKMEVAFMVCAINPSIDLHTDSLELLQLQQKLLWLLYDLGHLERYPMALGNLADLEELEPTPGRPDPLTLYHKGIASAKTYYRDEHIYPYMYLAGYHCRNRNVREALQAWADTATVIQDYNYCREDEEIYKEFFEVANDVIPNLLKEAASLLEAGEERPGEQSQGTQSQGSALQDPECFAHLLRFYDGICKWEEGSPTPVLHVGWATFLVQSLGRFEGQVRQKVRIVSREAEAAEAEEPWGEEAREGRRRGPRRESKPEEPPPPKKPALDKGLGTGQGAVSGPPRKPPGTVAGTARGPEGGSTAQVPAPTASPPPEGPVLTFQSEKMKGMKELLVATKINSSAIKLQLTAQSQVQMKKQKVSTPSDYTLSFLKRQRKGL
Procedure: Then, the fluorescence signal by AlphaLISA (registered trademark, PerkinElmer Co., Ltd.) was measured using a plate reader (PerkinElmer Co., Ltd., EnVisionXcite).

MOLM-13 cells = assay: cells; type: cell-based; conditions: Homo sapiens
Procedure: as §1, §2, §3

K562 cells = assay: Cell growth inhibitory activity, K562 cells (CellTiter-Glo, 384-well); type: cell-based; conditions: Homo sapiens
Procedure: as §1, §2, §3

Structure (SMILES)	rate of the myeloid cell differentiation antigen Gr-1-expressing cells in living cells [1]	rate of the cKit-expressing cells in living cells [1]	GI50 (MV-4-11 cells; 72 h, MV4;11, Day 3, read-out: GI50 (μM) Day 3 MV4)	GI50 (MV-4-11 cells; 168 h, MV4;11, Day 7, read-out: GI50 (μM) Day 7 MV4)	IC50 [2]	GI50 (MOLM-13 cells; MOLM-13, 72 h, read-out: GI50 (μM) Day 3 MOLM-13)	GI50 (MOLM-13 cells; MOLM-13, 168 h, read-out: GI50 (μM) Day 7 MOLM-13)	GI50 (K562 cells; 72 h, K562, Day 3, read-out: GI50 (μM) Day 3 K562)	GI50 (K562 cells; 168 h, K562, Day 7, read-out: GI50 (μM) Day 7 K562)
COc1cc(-c2ccc(CN[C@H]3C[C@@H](O)[C@@H](N(C)c4ncnc5sc(CC(F)(F)F)cc45)C3)cc2)cnc1C#N [Example 22, 5-[4-({[(1R,3R,4S)-3-hydroxy-4-{methyl[6-(2,2,2-trifluoroethyl)thieno[2,3-d]pyrimidin-4-yl]amino}cyclopentyl]amino}methyl)phenyl]-3-methoxypyridine-2-carbonitrile Hydrochloride]	increased the rate of Gr-1-positive cells	reduced the rate of cKit-positive cells							
COc1cc(-c2ccc(CN[C@H]3C[C@@H](O)[C@@H](N(C)c4ncnc5sc(CC(F)(F)F)cc45)C3)cc2)nnc1OC [Example 25, (1R,2S,4R)-4-({[4-(5,6-dimethoxypyridazin-3-yl)phenyl]methyl}amino)-2-{methyl[6-(2,2,2-trifluoroethyl)thieno[2,3-d]pyrimidin-4-yl]amino}cyclopentan-1-ol Hydrochloride]	increased the rate of Gr-1-positive cells	reduced the rate of cKit-positive cells							
COc1nc(N(C)[C@H]2C[C@@H](NCc3ccc(-c4cc(OC)c(OC)nn4)cc3)C[C@H]2O)c2cc(CC(F)(F)F)sc2n1 [Example 27, (1R,2S,4R)-4-({[4-(5,6-dimethoxypyridazin-3-yl)phenyl]methyl}amino)-2-{[2-methoxy-6-(2,2,2-trifluoroethyl)thieno[2,3-d]pyrimidin-4-yl](methyl)amino}cyclopentan-1-ol Hydrochloride]	increased the rate of Gr-1-positive cells	reduced the rate of cKit-positive cells							
FC(F)(F)Cc1cc2c(N[C@@H]3CCC[C@H](NCc4ccc(NC5CCCCC5)cc4)C3)ncnc2s1 [Example 44, (1S,3R)-N^1-{[4-(cyclohexylamino)phenyl]methyl}-N^3-[6-(2,2,2-trifluoroethyl)thieno[2,3-d]pyrimidin-4-yl]cyclohexane-1,3-diamine hydrochloride]			1.89 µM	1.53 µM	335 nM	2.73 µM	2.93 µM	2.75 µM	1.91 µM

Reference: patent US12528822B2, “Cycloalkane-1,3-diamine derivative” (Daiichi Sankyo Company, Limited, priority 2018, dated 2026)
